Results published in ChEMBL document CHEMBL1153424, “Discovery of 4-(benzylaminomethylene)isoquinoline-1,3-(2H,4H)-diones and 4-[(pyridylmethyl)aminomethylene]isoquinoline-1,3-(2H,4H)-diones as potent and selective inhibitors of the cyclin-dependent kinase 4” (J Med Chem, 2009).
pIC50: −log10 of the molar value.

What was measured:
[1] = target: Cyclin-dependent kinase 4/cyclin D1 (Homo sapiens, UniProt P11802); assay: (§1) Inhibition of CDK4/Cyclin D1 assessed as inhibition of retinoblastoma susceptibility gene product phosphorylation; assay type: protein-complex assay
[2] = test system: HCT-116; assay: cells; settings: Homo sapiens, HCT-116, 72 h
Description: Cytotoxicity against human HCT116 cells after 3 days by SRB assay

[3] = test system: MCF7; assay: cells; settings: Homo sapiens, MCF7, 72 h
Description: Cytotoxicity against human MCF7 cells after 3 days by SRB assay

[4] = target: Cyclin-dependent kinase 1/cyclin B1 (Homo sapiens, UniProt P06493); assay: (§2) Inhibition of CDK1/Cyclin B1 assessed as inhibition of retinoblastoma susceptibility gene product phosphorylation
[5] = target: Cyclin-dependent kinase 2 (Homo sapiens, UniProt P24941); assay: Inhibition of CDK2/Cyclin E assessed as inhibition of retinoblastoma susceptibility gene product phosphorylation
[6] = Metabolic stability in Sprague-Dawley rat liver microsome assessed as half life after 15 mins using NADPH cofactor; assay type: ADME; settings: liver microsomes
[7] = Metabolic stability in Sprague-Dawley rat liver microsome assessed as half life after 15 mins using NADPH/UDPGA cofactor; assay type: ADME; settings: liver microsomes
[8] = target: Cyclin-dependent kinase 1/cyclin B1 (Homo sapiens, UniProt P06493+P14635); assay: as §2
[9] = target: Cyclin-dependent kinase 4/cyclin D1 (Homo sapiens, UniProt P11802+P24385); assay: as §1; assay type: protein-complex assay
[10] = Selectivity for CDK4/Cyclin D1 over CDK2/Cyclin E
[11] = Selectivity for CDK4/Cyclin D1 over […]
[12] = target: Tyrosine-protein kinase Lyn (Homo sapiens, UniProt P07948); assay: Inhibition of LYN
[13] = target: Tyrosine-protein kinase Lck (Homo sapiens, UniProt P06239); assay: Inhibition of LCK
[14] = target: Proto-oncogene tyrosine-protein kinase Src (Homo sapiens, UniProt P12931); assay: Inhibition of Src
[15] = target: MAP kinase-activated protein kinase 2 (Homo sapiens, UniProt P49137); assay: Inhibition of MK2
[16] = target: Serine/threonine-protein kinase mTOR (Homo sapiens, UniProt P42345); assay: Inhibition of mTOR
[17] = target: RAC-alpha serine/threonine-protein kinase (Homo sapiens, UniProt P31749); assay: Inhibition of AKT
[18] = Inhibition of p70S6
[19] = target: Mitogen-activated protein kinase kinase kinase 8 (Homo sapiens, UniProt P41279); assay: Inhibition of Tpl2
[20] = target: Signal transducer and activator of transcription 3 (Homo sapiens, UniProt P40763); assay: Inhibition of STAT3
[21] = target: Protein kinase C theta type (Homo sapiens, UniProt Q04759); assay: Inhibition of PKCtheta
Protein kinase C theta type, sequence (Q04759 whole entry): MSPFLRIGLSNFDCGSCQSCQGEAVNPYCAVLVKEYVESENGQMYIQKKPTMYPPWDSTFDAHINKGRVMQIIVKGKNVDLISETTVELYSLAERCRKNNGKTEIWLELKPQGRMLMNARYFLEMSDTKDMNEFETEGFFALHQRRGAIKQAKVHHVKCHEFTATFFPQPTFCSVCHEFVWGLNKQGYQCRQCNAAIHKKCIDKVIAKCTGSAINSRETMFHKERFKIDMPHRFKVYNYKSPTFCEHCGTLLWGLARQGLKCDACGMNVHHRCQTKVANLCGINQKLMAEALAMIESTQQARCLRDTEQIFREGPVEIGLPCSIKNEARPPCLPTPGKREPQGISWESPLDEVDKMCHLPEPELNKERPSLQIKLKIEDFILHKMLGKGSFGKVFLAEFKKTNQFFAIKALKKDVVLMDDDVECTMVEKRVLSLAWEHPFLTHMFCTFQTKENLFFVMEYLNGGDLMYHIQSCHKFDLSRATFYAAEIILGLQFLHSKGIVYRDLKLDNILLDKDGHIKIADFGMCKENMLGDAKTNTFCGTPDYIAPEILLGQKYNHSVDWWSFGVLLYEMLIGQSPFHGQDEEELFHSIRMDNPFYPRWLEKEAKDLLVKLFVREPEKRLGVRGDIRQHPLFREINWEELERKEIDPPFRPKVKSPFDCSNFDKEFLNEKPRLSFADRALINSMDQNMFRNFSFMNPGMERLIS

Cyclin-dependent kinase 4/cyclin D1 (Homo sapiens, UniProt P11802), sequence (P11802 whole entry): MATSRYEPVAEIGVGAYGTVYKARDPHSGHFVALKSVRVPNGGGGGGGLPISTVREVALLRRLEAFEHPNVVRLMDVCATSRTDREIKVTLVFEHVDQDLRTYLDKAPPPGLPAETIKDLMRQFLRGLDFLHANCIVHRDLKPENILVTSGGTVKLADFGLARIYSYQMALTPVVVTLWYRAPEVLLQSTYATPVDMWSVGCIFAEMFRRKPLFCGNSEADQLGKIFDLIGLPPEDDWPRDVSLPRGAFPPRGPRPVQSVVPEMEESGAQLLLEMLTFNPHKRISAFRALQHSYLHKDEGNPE
Cyclin-dependent kinase 4/cyclin D1 (Homo sapiens, UniProt P11802), sequence (P24385 whole entry, further chain): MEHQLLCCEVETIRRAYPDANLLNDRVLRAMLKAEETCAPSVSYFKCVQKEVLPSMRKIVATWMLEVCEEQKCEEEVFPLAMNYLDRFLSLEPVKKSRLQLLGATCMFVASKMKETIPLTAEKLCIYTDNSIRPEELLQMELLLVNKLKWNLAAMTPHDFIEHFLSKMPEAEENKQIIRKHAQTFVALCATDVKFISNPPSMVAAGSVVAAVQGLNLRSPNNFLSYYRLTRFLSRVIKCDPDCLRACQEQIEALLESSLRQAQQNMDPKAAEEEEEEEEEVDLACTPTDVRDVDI
Cyclin-dependent kinase 1/cyclin B1 (Homo sapiens, UniProt P06493), sequence (P06493 whole entry): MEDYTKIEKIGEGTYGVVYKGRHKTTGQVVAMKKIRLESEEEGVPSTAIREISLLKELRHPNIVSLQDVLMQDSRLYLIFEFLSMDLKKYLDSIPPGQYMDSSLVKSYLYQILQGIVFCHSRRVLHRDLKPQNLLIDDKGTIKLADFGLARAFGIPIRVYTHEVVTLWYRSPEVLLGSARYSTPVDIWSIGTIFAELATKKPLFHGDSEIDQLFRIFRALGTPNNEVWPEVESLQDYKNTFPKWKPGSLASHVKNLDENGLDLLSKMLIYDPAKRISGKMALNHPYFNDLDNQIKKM
Cyclin-dependent kinase 1/cyclin B1 (Homo sapiens, UniProt P06493), sequence (P14635 whole entry, further chain): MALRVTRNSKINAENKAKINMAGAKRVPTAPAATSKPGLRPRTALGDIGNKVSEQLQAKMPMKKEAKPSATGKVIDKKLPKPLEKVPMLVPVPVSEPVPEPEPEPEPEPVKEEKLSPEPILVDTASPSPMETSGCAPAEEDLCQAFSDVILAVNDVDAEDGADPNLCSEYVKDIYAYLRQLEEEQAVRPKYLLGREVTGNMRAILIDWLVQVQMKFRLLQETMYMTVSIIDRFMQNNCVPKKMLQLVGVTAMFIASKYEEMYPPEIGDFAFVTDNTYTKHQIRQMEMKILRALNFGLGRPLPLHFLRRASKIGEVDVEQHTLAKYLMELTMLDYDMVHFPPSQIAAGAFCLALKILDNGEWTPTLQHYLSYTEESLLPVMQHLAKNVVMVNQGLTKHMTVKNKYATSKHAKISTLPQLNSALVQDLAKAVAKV
Cyclin-dependent kinase 1/cyclin B1 (Homo sapiens, UniProt P06493+P14635), sequence (P06493 whole entry): as the sequence (P06493 whole entry) above
Cyclin-dependent kinase 1/cyclin B1 (Homo sapiens, UniProt P06493+P14635), sequence (P14635 whole entry): as the sequence (P14635 whole entry, further chain) above
Tyrosine-protein kinase Lck, sequence (P06239 whole entry): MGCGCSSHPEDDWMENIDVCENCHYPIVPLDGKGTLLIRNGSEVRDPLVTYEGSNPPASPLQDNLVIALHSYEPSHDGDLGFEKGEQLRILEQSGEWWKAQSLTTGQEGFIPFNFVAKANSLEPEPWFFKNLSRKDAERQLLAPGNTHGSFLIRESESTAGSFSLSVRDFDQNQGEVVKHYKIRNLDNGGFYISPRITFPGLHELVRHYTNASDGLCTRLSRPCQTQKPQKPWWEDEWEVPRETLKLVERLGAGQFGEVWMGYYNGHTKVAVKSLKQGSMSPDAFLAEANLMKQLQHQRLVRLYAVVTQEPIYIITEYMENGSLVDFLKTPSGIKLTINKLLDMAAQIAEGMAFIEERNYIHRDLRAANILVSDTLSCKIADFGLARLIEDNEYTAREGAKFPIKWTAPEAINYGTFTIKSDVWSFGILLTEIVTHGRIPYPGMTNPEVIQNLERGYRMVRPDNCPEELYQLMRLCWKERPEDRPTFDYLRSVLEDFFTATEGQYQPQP
Cyclin-dependent kinase 4/cyclin D1 (Homo sapiens, UniProt P11802+P24385), sequence (P11802 whole entry): as the sequence (P11802 whole entry) above
Cyclin-dependent kinase 4/cyclin D1 (Homo sapiens, UniProt P11802+P24385), sequence (P24385 whole entry): as the sequence (P24385 whole entry, further chain) above
Proto-oncogene tyrosine-protein kinase Src, sequence (P12931 2-536 limits assumed): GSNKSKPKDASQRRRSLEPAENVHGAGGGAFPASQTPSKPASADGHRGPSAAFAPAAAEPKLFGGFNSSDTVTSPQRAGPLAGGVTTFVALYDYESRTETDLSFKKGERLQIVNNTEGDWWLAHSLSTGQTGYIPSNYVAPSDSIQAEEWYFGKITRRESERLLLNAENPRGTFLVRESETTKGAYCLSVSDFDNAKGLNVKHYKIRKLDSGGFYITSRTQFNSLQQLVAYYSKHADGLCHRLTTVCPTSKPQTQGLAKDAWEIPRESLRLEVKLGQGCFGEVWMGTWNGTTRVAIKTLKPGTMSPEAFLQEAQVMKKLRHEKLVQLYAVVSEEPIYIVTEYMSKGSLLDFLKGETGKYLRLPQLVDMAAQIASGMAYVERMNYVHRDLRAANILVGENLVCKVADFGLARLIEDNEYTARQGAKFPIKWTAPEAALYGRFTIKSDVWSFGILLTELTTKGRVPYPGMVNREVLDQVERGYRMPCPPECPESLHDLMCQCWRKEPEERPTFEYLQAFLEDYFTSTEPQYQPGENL
MAP kinase-activated protein kinase 2, sequence (P49137 whole entry): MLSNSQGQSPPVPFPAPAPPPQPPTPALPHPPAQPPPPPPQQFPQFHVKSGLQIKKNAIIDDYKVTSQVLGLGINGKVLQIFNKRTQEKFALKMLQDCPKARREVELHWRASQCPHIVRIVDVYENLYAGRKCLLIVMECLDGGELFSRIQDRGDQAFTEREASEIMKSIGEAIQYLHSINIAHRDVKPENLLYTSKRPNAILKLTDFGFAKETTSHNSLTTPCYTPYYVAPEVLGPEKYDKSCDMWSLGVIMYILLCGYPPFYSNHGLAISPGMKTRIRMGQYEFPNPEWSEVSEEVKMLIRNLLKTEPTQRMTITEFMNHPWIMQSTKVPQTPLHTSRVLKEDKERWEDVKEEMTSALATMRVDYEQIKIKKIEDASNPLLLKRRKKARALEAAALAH

SMILES	pIC50 [1]	pIC50 [2]	pIC50 [3]	pIC50 [4]	pIC50 [5]	other results
CC(C)(C)c1ccc2c(c1)/C(=C/NCc1cc(O)c(-c3ccccc3)cn1)C(=O)NC2=O	7.52	6.82	6.15			
COc1cnc(CN/C=C2\C(=O)NC(=O)c3ccc(I)cc32)nc1O	6.36	< 4.30	< 4.30	< 4.30	< 4.30	
CCCOc1ccc(CN/C=C2\C(=O)NC(=O)c3ccc(Br)cc32)cc1O					4.46	
O=C1NC(=O)c2ccccc2/C1=C/Nc1ccc(O)c(O)c1	5.11					
CCCOc1ccc(CN/C=C2\C(=O)NC(=O)c3ccc(I)cc32)nc1O	7.70	6.17	5.85	5.00	6.15	half-life [6]: > 30 min; half-life [7]: > 30 min
O=C1NC(=O)c2ccc(C3CCCC3)cc2/C1=C/NCc1cc(O)c(-c2ccoc2)cn1	> 8.30	6.09	6.08	5.51		
COc1cc(CN/C=C2\C(=O)NC(=O)c3ccc(Br)cc32)cc(O)c1OC	8.15				> 4.30	pIC50 [8]: > 4.30
O=C1NC(=O)c2ccc(I)cc2/C1=C/NCc1ccc(-c2cccnc2)c(O)c1	8.00	6.36	5.96	< 4.30		
O=C1NC(=O)c2ccc(Br)cc2/C1=C/NCc1ccc(O)c(O)c1	7.40				> 4.30	pIC50 [8]: > 4.30
COc1ccc(CN/C=C2\C(=O)NC(=O)c3ccc(F)cc32)cc1O					5.18	pIC50 [8]: > 4.30
CC(C)(C)c1ccc2c(c1)/C(=C/NCc1cc(O)c(-c3ccoc3)cn1)C(=O)NC2=O	7.70	6.32	5.85	5.02		
COc1ccc(CN/C=C2\C(=O)NC(=O)c3ccc(-c4ccccc4)cc32)cc1O	8.00			4.46	4.59	
Nc1ccc(CN/C=C2\C(=O)NC(=O)c3ccc(Br)cc32)cc1O						pIC50 [8]: > 4.30
CCCOc1ccc(CN/C=C2\C(=O)NC(=O)c3ccc(I)cc32)cc1O	7.70	6.19	5.74	< 4.30	5.59	half-life [6]: > 30 min; half-life [7]: 15 min
O=C1NC(=O)c2ccccc2/C1=C/NCc1ccc(O)cc1					4.76	pIC50 [9]: > 4.30
Cc1ccc(CN/C=C2\C(=O)NC(=O)c3ccc(I)cc32)cc1O	7.52	5.17	5.09		4.87	
O=C1NC(=O)c2ccc(I)cc2/C1=C/NCc1ccc(-c2ccccc2)c(O)c1		6.38	6.06			
O=C1NC(=O)c2ccccc2/C1=C/NCCc1ccc(O)c(O)c1	4.79					
CCCOc1cnc(CN/C=C2\C(=O)NC(=O)c3ccc(C(C)(C)C)cc32)cc1O	7.70	6.37	6.15	5.21		
COc1ccc(CN(C)/C=C2\C(=O)NC(=O)c3ccc(Br)cc32)cc1O						pIC50 [8]: > 4.30
COCCOc1ccc(CN/C=C2\C(=O)NC(=O)c3ccc(Br)cc32)cc1O	7.40				> 4.30	pIC50 [8]: > 4.30

SMILES	pIC50 [1]	pIC50 [2]	pIC50 [3]	pIC50 [4]	pIC50 [5]	other results
COc1ccc(CN/C=C2\C(=O)NC(=O)c3ccccc32)cc1O	6.72			4.31	5.16	
COc1ccc(CN/C=C2\C(=O)NC(=O)c3ccc(-c4ccoc4)cc32)cc1O	8.70				5.96	
O=C1NC(=O)c2ccccc2/C1=C/NCc1ccc(O)c(O)c1	5.92			4.44		
CCCOc1cnc(CN/C=C2\C(=O)NC(=O)c3ccc(I)cc32)cc1O	7.52	6.14	6.06	4.60		half-life [6]: > 30 min; half-life [7]: > 30 min
O=C1NC(=O)c2ccc(I)cc2/C1=C/NCc1ccc(-c2ccncc2)c(O)c1	8.10	5.64	5.82	< 4.30	< 4.30	
COc1coc(CN/C=C2\C(=O)NC(=O)c3ccc(Br)cc32)cc1=O	5.89			< 4.30	4.77	
CCOc1ccc(CN/C=C2\C(=O)NC(=O)c3ccc(Br)cc32)cc1O						pIC50 [8]: > 4.30
COc1ccc(CN/C=C2\C(=O)NC(=O)c3ccc(Cl)cc32)cc1O					> 4.30	pIC50 [8]: > 4.30
COc1ccc(CN/C=C2\C(=O)NC(=O)c3ccc(Br)cc32)cc1O	7.52				> 4.30	Ratio IC50 [10]: 1600; pIC50 [8]: > 4.30; Ratio IC50 [11]: 1600
COc1cnc(CN/C=C2\C(=O)NC(=O)c3ccc(I)cc32)cc1O	8.00	5.89	6.00	4.83		half-life [6]: > 30 min; half-life [7]: > 30 min
COc1ccc(CN/C=C2\C(=O)NC(=O)c3ccc(I)cc32)cc1O		5.70	5.43			half-life [6]: 18 min; half-life [7]: 6 min
O=C1NC(=O)c2ccc(I)cc2/C1=C/NCc1ccc(-c2ccccn2)c(O)c1	4.71	6.60	6.27	< 4.30	< 4.30	
CCCOc1cnc(CN/C=C2\C(=O)NC(=O)c3ccc(C4CCCC4)cc32)cc1O	> 8.30	6.82	6.52	5.51		
O=C1NC(=O)c2ccc(I)cc2/C1=C/NCc1ccc(-c2ccco2)c(O)c1	7.00	6.42	6.15	< 4.30		
COc1ccc(CN/C=C2\C(=O)NC(=O)c3ccc(-c4ccsc4)cc32)cc1O						Ratio IC50 [10]: 9000; Ratio IC50 [11]: 11000
O=C1NC(=O)c2ccc(I)cc2/C1=C/NCc1ccc(-c2ccoc2)c(O)c1	7.22			4.61		half-life [6]: > 30 min; pIC50 [12]: 5.07; half-life [7]: 18 min; pIC50 [13]: < 4.52; pIC50 [14]: < 4.52; pIC50 [15]: 4.72; pIC50 [16]: 4.74; pIC50 [17]: 4.99; pIC50 [18]: < 4.52; pIC50 [19]: < 5.40; pIC50 [20]: 5.77; pIC50 [21]: 4.59
COc1ccc(C(C)N/C=C2\C(=O)NC(=O)c3ccc(Br)cc32)cc1O (centres undefined)	6.43				> 4.30	pIC50 [8]: > 4.30
COc1ccc(CN/C=C2\C(=O)NC(=O)c3ccc(-n4cccc4)cc32)cc1O					5.51	
O=C1NC(=O)c2ccc(I)cc2/C1=C/NCc1cc(O)c(-c2ccoc2)cn1		6.26	5.57			half-life [6]: > 30 min; half-life [7]: 22 min
O=C1NC(=O)c2ccc(Br)cc2/C1=C/NCc1cc[nH]c(=O)c1				< 4.30		
O=C1NC(=O)c2ccccc2/C1=C/NCc1cccc(O)c1					4.77	pIC50 [8]: > 4.30
